Data published in the Deep4Chem optical property database.

Experiment: solvent given as SMILES

Work on `C(#Cc1ccccc1)C(C#Cc1ccccc1)=Cc1ccccc1` yielded an emission maximum (in ClC(Cl)Cl) of 392 nm.
With `CN(C)c1ccc(/C=C/c2ccc(-c3nnc(-c4ccc(-c5cc6ccccc6s5)cc4)o3)cc2)cc1` the emission maximum (in CC#N) was 397 nm, the emission maximum (in CC(C)=O) was 395 nm and the emission maximum (in CCCCCCCC) was 387 nm. It also gave an emission maximum (in CCCCCCCCCCO) of 394 nm, an emission maximum (in CCCCCCCCO) of 398 nm and an emission maximum (in CCCCCO) of 399 nm. It also gave an emission maximum (in CCCO) of 399 nm, an emission maximum (in CN(C)C=O) of 401 nm and an emission maximum (in CO) of 404 nm. The emission maximum (in CS(C)=O) was 408 nm.
For `COc1cc(OC)cc(C2=[O+][B-](F)(F)OC(c3ccc4cc(OC)ccc4c3)=C2)c1`, the emission maximum (in CC#N) was 550.5 nm, the emission maximum (in CC(C)=O) was 533.32 nm and the emission maximum (in CCCCCC) was 430.95 nm. For the same compound, the emission maximum (in Cc1ccccc1) was 475.78 nm and the emission maximum (in ClCCl) was 520 nm.
`COCCC1(CCOC)c2cc(-c3ccc(OC)cc3)ccc2-c2ccc(-c3ccc4c(c3)C(CCOC)(CCOC)c3cc(-c5ccc(OC)cc5)ccc3-4)cc21` showed an emission maximum (in CN(C)C=O) of 395 nm.
For `CC(C)(C)c1ccc2c(c1)c1cc(C(C)(C)C)cc3c1n2B1c2c-3cccc2-c2cc(C(C)(C)C)cc3c4cc(C(C)(C)C)ccc4n1c23`, the emission maximum (in C1CCOC1) was 384 nm.
`COc1ccc2c(c1)C(=O)c1ccccc1-2` showed an emission maximum (in C1CCCCC1) of 518 nm and an emission maximum (in CC#N) of 568 nm.
In the case of `O=C1c2cc3ccccc3cc2C2=Nc3cccc[n+]3[B-](F)(F)N12`, the emission maximum (in ClCCl) is reported as 414 nm.
Work on `CCCCCCN1C(=O)c2cccc3c(-c4ccc(-c5cccs5)s4)ccc(c23)C1=O` yielded an emission maximum (in ClC(Cl)Cl) of 534 nm.
Compound `CCCCN(CCCC)c1ccc(/C=C/c2ccc3c(c2)CCc2cc(/C=C/c4ccc(N(CCCC)CCCC)cc4)ccc2-3)cc1` has an emission maximum (in CS(C)=O) of 536.5 nm and an emission maximum (in Cc1ccccc1) of 456.4 nm.
Compound `CC(C)(C)c1ccc(C2=C(c3ccc(C(C)(C)C)cc3)[Si](c3ccccc3)(c3ccccc3)c3ccccc32)cc1` has an emission maximum (in C1CCOC1) of 447 nm.
With `Nc1ccc2c(c1)C(=O)O/C2=C\c1ccc(Cl)cc1` the emission maximum (in CC#N) was 452.9 nm, the emission maximum (in CC(C)=O) was 448.83 nm and the emission maximum (in CC(C)CO) was 483.09 nm. It also gave an emission maximum (in CC(C)O) of 484.97 nm, an emission maximum (in CCCO) of 484.5 nm and an emission maximum (in CCO) of 487.33 nm. For the same compound, the emission maximum (in CCOC(C)=O) was 461.68 nm, the emission maximum (in CCOCC) was 427.17 nm and the emission maximum (in CO) was 492.13 nm.
Compound `CCOC(=O)CCCCCn1c2ccc(OC)cc2c(=O)c2cc3c(cc21)c(=O)c1cc(OC)ccc1n3CCCCCC(=O)OCC` has an emission maximum (in CCO) of 592 nm.
In the case of `CCC1(CC)c2cc(C=C(C#N)C#N)ccc2-c2ccc(N(C)C)cc21`, the emission maximum (in C1CCCCC1) is reported as 528 nm, the emission maximum (in CC#N) is reported as 688 nm and the emission maximum (in CCO) is reported as 677 nm. It also gave an emission maximum (in CCOCC) of 579 nm, an emission maximum (in CS(C)=O) of 711 nm and an emission maximum (in ClCCl) of 631 nm. It also gave an emission maximum (in c1ccccc1) of 560 nm.
Work on `C1=[N+](c2ccccc2)[B-]2(Oc3c1ccc1c4c(ccc31)C=[N+](c1ccccc1)[B-]1(O4)c3ccccc3Oc3ccccc31)c1ccccc1Oc1ccccc12` yielded an emission maximum (in Cc1ccccc1) of 605 nm and an emission maximum (in ClCCl) of 599 nm.
With `CCCCC(CC)COc1ccc2nc(-c3ccc(-c4c(C)noc4C)s3)sc2c1` (stereo unspecified) the emission maximum (in ClCCl) was 415 nm.
With `CN(C)c1ccc(C(=Cc2ccc(/C=C(\C#N)c3ccccc3)cc2)c2ccc(N(C)C)cc2)cc1` the emission maximum (in C1CCOC1) was 616 nm.
`F[B-]1(F)n2ccnc2-c2cccc[n+]21` showed an emission maximum (in C1CCCCC1) of 338 nm, an emission maximum (in C1CCOC1) of 353 nm and an emission maximum (in C1COCCO1) of 352 nm. The emission maximum (in CC#N) was 359 nm, the emission maximum (in CCCCCC) was 337 nm and the emission maximum (in CO) was 362 nm. The emission maximum (in ClC(Cl)Cl) was 356 nm.
Compound `Brc1cnc(-c2ccncc2)s1` has an emission maximum (in CO) of 396 nm.
Work on `CCCCc1ccc2c(c1)c1cc(CCCC)ccc1n2-c1ccc(S(=O)(=O)c2ccc(S(=O)(=O)c3ccc(-n4c5ccc(CCCC)cc5c5cc(CCCC)ccc54)cc3)cc2)cc1` yielded an emission maximum (in Cc1ccccc1) of 450 nm and an emission maximum (in c1cc(-n2c3ccccc3c3ccccc32)nc(-n2c3ccccc3c3ccccc32)c1) of 467.24 nm.
For `CCC1=C(C)C2=C(C)c3cc(I)cn3[B-](F)(F)[N+]2=C1C`, the emission maximum (in C1CCCCC1) was 532 nm, the emission maximum (in CC(C)=O) was 532.5 nm and the emission maximum (in CCO) was 534 nm. For the same compound, the emission maximum (in CCOC(C)=O) was 531.5 nm, the emission maximum (in CO) was 533.5 nm and the emission maximum (in OCC(F)(F)F) was 530.5 nm.
`Clc1nc(Cl)nc(Nc2cc3ccc4cccc5ccc(c2)c3c45)n1` showed an emission maximum (in CCCCOCCCC) of 374 nm.
With `c1ccc2c(c1)CCc1c-2cnc2c1-c1ccccc1CC2` the emission maximum (in C1CCOC1) was 356 nm, the emission maximum (in CC#N) was 358 nm and the emission maximum (in CCCCCC) was 358 nm. It also gave an emission maximum (in CCOC(C)=O) of 358 nm, an emission maximum (in CO) of 361 nm and an emission maximum (in CS(C)=O) of 360 nm. The emission maximum (in Cc1ccccc1) was 362 nm and the emission maximum (in ClCCl) was 363 nm.
